According to ChEMBL document CHEMBL5528053, “Discovery of Novel Isoquinoline Analogues as Dual Tubulin Polymerization/V-ATPase Inhibitors with Immunogenic Cell Death Induction” (J Med Chem, 2024):
The source made the active and inactive calls. No cut-off for these calls is given here.

Tests used:
PC-3 [1] = test: Induction of endoplasmic reticulum (ER) stress in human PC-3 cells assessed as upregulation of CHOP phosphorylation level at 50 to 200 nM measured after 24 hrs by Western blot analysis; type: functional, cell-based; conditions: dose 50-200 nM
MDA-MB-231 = test: Antiproliferative activity against human MDA-MB-231 cells assessed as inhibition of cell growth after 72 hrs by MTT assay; type: functional, cell-based; conditions: MDA-MB-231, 72 h
PC-3 [2] = test: Induction of endoplasmic reticulum (ER) stress in human PC-3 cells assessed as upregulation of eIF2 alpha phosphorylation at […] residues at 50 to 200 nM measured after 24 hrs by Western blot analysis; type: functional, cell-based; conditions: dose 50-200 nM
[3] = Toxicity in ICR mouse assessed as effect on WBC count at 10 mg/kg, ip measured for 14 days; type: organism-based; conditions: in vivo, 336 h, time 14 day
PC-3 [4] = test: Induction of apoptosis in human PC-3 cells assessed as early apoptotic cells at 100 nM measured after 24 hrs by annexin V-FITC and PI staining based flow cytometry analysis (reference value: 1.03%); type: functional
PC-3 [5] = test: Induction of immunogenic cell death in human PC-3 cells assessed as increase in CRT translocation to cell surface at 200 nM measured after 12 hrs in presence of NAC by DAPI staining based analysis; type: functional
PC-3 [6] = test: Induction of immunogenic cell death in human PC-3 cells assessed as increase in CRT translocation to cell surface at 200 nM measured after 12 hrs in presence of TUDCA by DAPI staining based analysis; type: functional
[7] = Antitumor immunity against mouse RM1 cells homografted in C57BL/6 mouse model assessed as increase in tumor infiltrating lymphocytes at 5 mg/kg, iv administered every two days for 14 days by flow cytometry analysis (reference value: 5.26%); type: functional; conditions: time 14 day
[8] = Anticancer activity against mouse RM1 cells assessed as increase in mean fluorescence intensity at 400 nM measured after 24 hrs by flow cytometry analysis (reference value: 7.40+/-3.96 ); type: functional
PC-3 [9] = test: Induction of cell cycle arrest in human PC-3 cells assessed as accumulation of cells at S phase at 100 nM incubated for 24 hrs by flow cytometry analysis (reference value: 31.3%); type: functional
A549 = test: Antiproliferative activity against human A549 cells assessed as inhibition of cell growth after 72 hrs by MTT assay; type: functional, cell-based; conditions: A549, 72 h
PC-3 [10] = test: Induction of apoptosis in human PC-3 cells measured after 24 hrs by annexin V-FITC and PI staining based flow cytometry analysis; type: functional, cell-based; conditions: dose 50-200 nM
Tubulin = test: (§1) Inhibition of tubulin polymerization (unknown origin) measured every 60 secs for 60 mins by microplate reader based analysis; type: protein-complex assay, Homo sapiens
Tubulin (Homo sapiens) = Tubulin (Homo sapiens) (UniProt P68371+Q9H4B7+P0DPH7+P68366+Q13509+Q71U36+P04350+Q3ZCM7+P07437+P68363+Q9BQE3+Q6PEY2+Q13885+Q9BVA1+Q9BUF5); test: as §1; type: protein-complex assay; conditions: dose 1.25-40 µM
PC-3 [11] = test: Induction of cell cycle arrest in human PC-3 cells assessed as accumulation of cells at S phase at 50 nM incubated for 24 hrs by flow cytometry analysis (reference value: 31.3%); type: functional
[12] = Toxicity in ICR mouse assessed as effect on CRE level at 10 mg/kg, ip measured for 14 days; type: organism-based; conditions: in vivo, 336 h, time 14 day
PC-3 [13] = test: Induction of immunogenic cell death in human PC-3 cells assessed as decrease in HMGB1 content in tumor cells at 50 to 200 nM; type: functional, cell-based; conditions: dose 50-200 nM
PC-3 [14] = test: Inhibition of V-ATPase activity in human PC-3 cells at 400 nM measured after 24 hrs by colorimetric assay relative to control; type: cell-based
PC-3 [15] = test: Induction of apoptosis in human PC-3 cells assessed as downregulation of bcl-2 level at 50 to 200 nM incubated for 24 hrs by Western blot analysis; type: functional, cell-based; conditions: dose 50-200 nM
PC-3 [16] = test: Induction of cell cycle arrest in human PC-3 cells assessed as accumulation of cells at G1 phase at 100 nM incubated for 24 hrs by flow cytometry analysis (reference value: 49.4%); type: functional
PC-3 [17] = test: Induction of apoptosis in human PC-3 cells assessed as necrotic cells at 200 nM measured after 24 hrs by annexin V-FITC and PI staining based flow cytometry analysis (reference value: 6.01%); type: functional
PC-3 [18] = test: Induction of cell cycle arrest in human PC-3 cells assessed as reduction in CDC2 phosphorylation at Thr161 residue at 50 to 200 nM incubated for 24 hrs by DAPI staining based analysis; type: functional; conditions: dose 50-200 nM
[19] = Toxicity in ICR mouse assessed as effect on heart at 10 mg/kg, ip measured for 14 days by H and E staining based analysis; type: organism-based; conditions: in vivo, 336 h, time 14 day
PC-3 [20] = test: Induction of apoptosis in human PC-3 cells assessed as increase in bax level at 50 to 200 nM incubated for 24 hrs by Western blot analysis; type: functional, cell-based; conditions: dose 50-200 nM
PC-3 [21] = test: Induction of cell cycle arrest in human PC-3 cells assessed as increase in histone H3at Ser10 residues at 50 to 200 nM incubated for 24 hrs by DAPI staining based analysis; type: functional; conditions: dose 50-200 nM
PC-3 [22] = test: Inhibition of V-ATPase activity in human PC-3 cells measured after 24 hrs by colorimetric assay; type: cell-based; conditions: dose 50-800 nM
[23] = Antitumor immunity against mouse RM1 cells homografted in C57BL/6 mouse model assessed as increase in tumor infiltrating helper T lymphocytes at 10 mg/kg, iv administered every two days for 14 days by flow cytometry analysis (reference value: 6.59%); type: functional; conditions: time 14 day
[24] = Antitumor activity against mouse RM1 cells homografted in C57BL/6 mouse model assessed as tumor growth inhibition at 5 mg/kg, iv administered every two days for 14 days by vernier caliper based analysis relative to control; type: functional; conditions: RM1, 336 h, time 14 day, read-out: TGI
PC-3 [25] = test: Downregulation of acetyl-alpha tubulin expression in human PC-3 cells incubated for 24 hrs by Western blot analysis; type: functional, cell-based; conditions: dose 50-200 nM
[26] = Antitumor immunity against mouse RM1 cells homografted in C57BL/6 mouse model assessed as increase in tumor infiltrating CD3+CD8+T cells (CTLs) at 5 mg/kg, iv administered every two days for 14 days by flow cytometry analysis (reference value: 0.89%); type: functional; conditions: time 14 day
[27] = Toxicity in ICR mouse assessed as effect on CK level at 10 mg/kg, ip measured for 14 days; type: organism-based; conditions: in vivo, 336 h, time 14 day
PC-3 [28] = test: Induction of apoptosis in human PC-3 cells assessed as early apoptotic cells at 50 nM measured after 24 hrs by annexin V-FITC and PI staining based flow cytometry analysis (reference value: 1.03%); type: functional
PC-3 [29] = test: Induction of apoptosis in human PC-3 cells assessed as necrotic cells at 100 nM measured after 24 hrs by annexin V-FITC and PI staining based flow cytometry analysis (reference value: 6.01%); type: functional
[30] = Antitumor activity against mouse RM1 cells homografted in C57BL/6 mouse model assessed as tumor growth inhibition at 10 mg/kg, iv administered every two days for 14 days by vernier caliper based analysis relative to control; type: functional; conditions: RM1, 336 h, time 14 day, read-out: TGI
PC-3 [31] = test: Induction of apoptosis in human PC-3 cells assessed as early apoptotic cells at 200 nM measured after 24 hrs by annexin V-FITC and PI staining based flow cytometry analysis (reference value: 1.03%); type: functional

COc1cc(-c2nc(C(N)=O)cc3cc4c(cc23)OCCO4)cc(Br)c1OC
Activity (PC-3 [1]): Active
IC50 (MDA-MB-231): 0.13 µM
Activity (PC-3 [2]): Active
Activity [3]: Non-Toxic
Activity (PC-3 [4]): 21.6%
Activity (PC-3 [5]): inactive
Activity (PC-3 [6]): inactive
Activity [7]: 7.01%
Flu intensity [8]: 151.3
Activity (PC-3 [9]): 22.3%
IC50 (A549): 0.09 µM
Activity (PC-3 [10]): Dose-Dependent Effect
IC50 (Tubulin): 6.33 µM
inhibition (Tubulin (Homo sapiens)): Dose-Dependent Effect
Activity (PC-3 [11]): 29.3%
Activity [12]: Non-Toxic
Activity (PC-3 [13]): Active
inhibition (PC-3 [14]): 60%
Activity (PC-3 [15]): Active
Activity (PC-3 [16]): 34.1%
Activity (PC-3 [17]): 6.91%
Activity (PC-3 [18]): Active
Activity [19]: Non-Toxic
Activity (PC-3 [20]): Active
Activity (PC-3 [21]): Active
inhibition (PC-3 [22]): Dose-Dependent Effect
Activity [23]: 14.2%
inhibition in vivo at 5 mg/kg [24]: 61.6%
Activity (PC-3 [25]): Dose-Dependent Effect
Activity [26]: 1.59%
Activity [27]: Non-Toxic
Activity (PC-3 [28]): 1.93%
Activity (PC-3 [29]): 6.41%
inhibition in vivo at 10 mg/kg [30]: 70.2%
Activity (PC-3 [31]): 22.7%
